Source: patent US20240072809A1, “ASGPR-BINDING COMPOUNDS FOR THE DEGRADATION OF EXTRACELLULAR PROTEINS” (Avilar Therapeutics, Inc., priority 2020, published 2024)
Where two headings read alike, the source gives them in different places. Bridge positions count the residues as written; N and C are the ends. Peptide text beside a SMILES is read from it. * marks the point of attachment. X3 = CO[C@@H]1O[C@H](COCCOCCOCCOCCNC(=O)CCOCC(COCCC(=O)NCCOCCOCCOCCOC[C@H]2O[C@@H](OC)[C@H](NC(C)=O)[C@@H](O)[C@H]2O)(COCCC(=O)NCCOCCOCCOCCOC[C@H]2O[C@@H](OC)[C@H](NC(C)=O)[C@@H](O)[C@H]2O)NC(=O)COCCOCCOCC(=O)*)[C@H](O)[C@H](O)[C@H]1NC(C)=O

Target: ASGPR (Homo sapiens (Human), UniProt P07306)
Assay: Affinity to ASGPR measured by surface plasmon resonance (SPR)
Format: binding
[1] = ASGPR ligands, Table 4, numeric lower bounds, read-out: ASGPR_PR Binding KD
[2] = ASGPR ligands, Table 4, class symbols, read-out: ASGPR_PR Binding KD
[3] = ASGPR ligands, Table 2, Biacore 8K, 25° C., steady state fit, read-out: SPR Binding External Calculation: KD
[4] = ASGPR ligands with linker, Table 5, read-out: ASGPR_SPR Binding KD

Sequence of ASGPR (P07306 whole entry): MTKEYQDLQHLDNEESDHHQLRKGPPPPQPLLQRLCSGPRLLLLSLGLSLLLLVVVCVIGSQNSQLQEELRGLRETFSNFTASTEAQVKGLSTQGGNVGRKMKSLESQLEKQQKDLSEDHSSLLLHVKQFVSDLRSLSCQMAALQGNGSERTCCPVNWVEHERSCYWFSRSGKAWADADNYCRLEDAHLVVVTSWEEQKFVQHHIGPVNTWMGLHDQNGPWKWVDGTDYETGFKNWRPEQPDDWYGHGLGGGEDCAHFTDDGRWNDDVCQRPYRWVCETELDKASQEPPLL

## CC(C)C[C@H]1NC(=O)[C@@H](CC(=O)[C@@H](NC(=O)[C@H](CCC(N)=O)NC(=O)[C@H](Cc2cnc[nH]2)NC(=O)CCOCCOCCOCCOCCNC(=O)CCCc2cn(CCCC(=O)NCCOCc3cnn(CCOCCOCCOCCO[C@@]45CO[C@@H](O4)[C@H](NC(=O)C(F)(F)F)[C@@H](O)[C@H]5O)c3)nn2)C(C)C)CSSC[C@@H](C(=O)N[C@@H](Cc2ccccc2)C(=O)N[C@@H](CO)C(=O)NC(C=O)[C@@H](C)O)NC(=O)[C@H](C(C)C)NC(=O)[C@@H]2CCCN2C(=O)[C@H](CCCNC(=N)N)NC(=O)CNC(=O)[C@@H](CCCNC(=N)N)NC(=O)[C@H](Cc2ccc(O)cc2)NC(=O)[C@H](CO)CC1=O (some centres unmarked) [Compound 26]
Extracellular protein degrading compounds, Table 3, read-out: SPR Binding External Calculation: KD (uM) ASGPR
  Kd: < 100 µM

## CS(=O)(=O)NC(=O)N[C@H]1CO[C@H](CO)[C@H](O)[C@@H]1O [Compound A157, N-(((3S,4R,5R,6R)-4,5-dihydroxy-6-(hydroxymethyl)tetrahydro-2H-pyran-3-yl)carbamoyl)methanesulfonamide]
[1]
  Kd: > 20 µM

## Cc1cc(C(F)(F)F)nc(N[C@H]2CO[C@H](CO)[C@H](O)[C@@H]2O)n1 [Compound A334]
[2]
  Kd: < 100 µM

## CC(=O)N[C@@H]1CO[C@@H]2COC(C)(C)O[C@@H]2[C@@H]1O [Compound A127-2c, N-((4aR,7R,8R,8aR)-8-hydroxy-2,2-dimethylhexahydropyrano[3,2-d][1,3]dioxin-7-yl)acetamide]
[1]
  Kd: > 200 µM

## OC[C@H]1OC=C(C(F)(F)F)[C@@H](O)[C@H]1O [Compound A221-2, (2R,3R,4R)-2-(hydroxymethyl)-5-(trifluoromethyl)-3,4-dihydro-2H-pyran-3,4-diol]
[1]
  Kd: > 200 µM

## OC[C@H]1OC[C@H](Nc2nc3ccccc3s2)[C@@H](O)[C@H]1O [Compound A354, (2R,3R,4R,5S)-5-(benzo[d]thiazol-2-ylamino)-2-(hydroxymethyl)tetrahydro-2H-pyran-3,4-diol]
[2]
  Kd: < 100 µM

## CCOc1cc(Cl)nc(N[C@H]2CO[C@H](CO)[C@H](O)[C@@H]2O)n1 [Compound A367, (2R,3R,4R,5S)-5-((4-chloro-6-ethoxypyrimidin-2-yl)amino)-2-(hydroxymethyl)tetrahydro-2H-pyran-3,4-diol]
[2]
  Kd: < 100 µM

## O=C1OCCN1[C@@H]1CO[C@H](CO)[C@H](O)[C@@H]1O [Compound A223, 3-((3R,4R,5R,6R)-4,5-dihydroxy-6-(hydroxymethyl)tetrahydro-2H-pyran-3-yl)oxazolidin-2-one]
[2]
  Kd: < 100 µM

## COc1nc(C#N)nc(N[C@H]2CO[C@H](CO)[C@H](O)[C@@H]2O)n1 [Compound A349, 4-(((3S,4R,5R,6R)-4,5-dihydroxy-6-(hydroxymethyl)tetrahydro-2H-pyran-3-yl)amino)-6-methoxy-1,3,5-triazine-2-carbonitrile]
[2]
  Kd: < 100 µM

## OC[C@H]1OC[C@@H](CCc2ccccc2)[C@@H](O)[C@H]1O [Compound A160, (2R,3R,4R,5R)-2-(hydroxymethyl)-5-phenethyltetrahydro-2H-pyran-3,4-diol]
[3]
  Kd: > 1000 µM

## OC[C@H]1OC[C@@H](COc2ccccc2)[C@@H](O)[C@H]1O [Compound A193, (2R,3R,4R,5S)-2-(hydroxymethyl)-5-(phenoxymethyl)tetrahydro-2H-pyran-3,4-diol]
[3]
  Kd: 100 to 500 µM

## NC(=O)NC[C@@H]1CO[C@H](CO)[C@H](O)[C@@H]1O [Compound A403, 1-(((3R,4R,5R,6R)-4,5-dihydroxy-6-(hydroxymethyl)tetrahydro-2H-pyran-3-yl)methyl)urea]
[1]
  Kd: > 20 µM

## OC[C@H]1OC[C@H](Nc2nc(C(F)(F)F)ns2)[C@@H](O)[C@H]1O [Compound A300]
[2]
  Kd: < 100 µM

## CO[C@@H]1O[C@H](COS(=O)(=O)c2ccc(C)cc2)[C@H](O)[C@H](O)[C@H]1NC(C)=O [Compound A286]
[3]
  Kd: < 100 µM

## N#Cc1cnc(N[C@H]2CO[C@H](CO)[C@H](O)[C@@H]2O)s1 [Compound A372, 2-(((3S,4R,5R,6R)-4,5-dihydroxy-6-(hydroxymethyl)tetrahydro-2H-pyran-3-yl)amino)thiazole-5-carbonitrile]
[1]
  Kd: > 20 µM

## NC[C@@H]1CO[C@H](CO)[C@H](O)[C@@H]1O [Compound A425, (2R,3R,4R,5R)-5-(aminomethyl)-2-(hydroxymethyl)tetrahydro-2H-pyran-3,4-diol]
[2]
  Kd: > 1000 µM

## COc1nc(C#N)cc(N[C@H]2CO[C@H](CO)[C@H](O)[C@@H]2O)n1 [Compound A326]
[2]
  Kd: < 100 µM

## CO[C@@H]1O[C@H](CO)[C@H](O)[C@H](O)[C@H]1Nc1ncc(F)cc1F [Compound A383, (2R,3R,4R,5R,6R)-5-((3,5-difluoropyridin-2-yl)amino)-2-(hydroxymethyl)-6-methoxytetrahydro-2H-pyran-3,4-diol]
[2]
  Kd: < 100 µM

## CC(=O)NCCNC[C@@H]1CO[C@H](CO)[C@H](O)[C@@H]1O [Compound A402, N-(2-((((3R,4R,5R,6R)-4,5-dihydroxy-6-(hydroxymethyl)tetrahydro-2H-pyran-3-yl)methyl)amino)ethyl)acetamide]
[1]
  Kd: > 200 µM

## CS(=O)(=O)c1nc(Cl)cc(N[C@H]2CO[C@H](CO)[C@H](O)[C@@H]2O)n1 [Compound A370, (2R,3R,4R,5S)-5-((6-chloro-2-(methylsulfonyl)pyrimidin-4-yl)amino)-2-(hydroxymethyl)tetrahydro-2H-pyran-3,4-diol]
[1]
  Kd: > 10 µM

## CC(=O)N[C@@H]1CO[C@H](COCCOCCOCCOCCNC(=O)CCOCC(COCCC(=O)NCCOCCOCCOCCOC[C@H]2OC[C@@H](NC(C)=O)[C@@H](O)[C@H]2O)(COCCC(=O)NCCOCCOCCOCCOC[C@H]2OC[C@@H](NC(C)=O)[C@@H](O)[C@H]2O)NC(=O)COCCOCCOCCNc2ccc([N+](=O)[O-])cc2[N+](=O)[O-])[C@H](O)[C@@H]1O [Compound 33, 3,3′-((2-(2-(2-(2-(2-((2,4-dinitrophenyl)amino)ethoxy)ethoxy)ethoxy)acetamido)propane-1,3-diyl)tris(oxy))tris(N-(1-((2R,3R,4R,5R)-5-acetamido-3,4-dihydroxytetrahydro-2H-pyran-2-yl)-2,5,8,11-tetraoxatridecan-13-yl)propanamide)]
[4]
  Kd: < 100 µM

## NC(COCCC(=O)NCCOCCOCCOCCOC[C@H]1OC[C@H](Nc2nccc(C(F)(F)F)n2)[C@@H](O)[C@H]1O)COCCC(=O)NCCOCCOCCOCCOC[C@H]1OC[C@H](Nc2nccc(C(F)(F)F)n2)[C@@H](O)[C@H]1O [Compound A422, 3,3′-((2-aminopropane-1,3-diyl)bis(oxy))bis(N-(1-((2R,3R,4R,5S)-3,4-dihydroxy-5-((4-(trifluoromethyl)pyrimidin-2-yl)amino)tetrahydro-2H-pyran-2-yl)-2,5,8,11-tetraoxatridecan-13-yl)propanamide)]
[4]
  Kd: < 100 µM

## CSc1ccnc(N[C@H]2CO[C@H](CO)[C@H](O)[C@@H]2O)n1 [Compound A336]
[2]
  Kd: < 100 µM

## COc1nc(N[C@H]2CO[C@H](CO)[C@H](O)[C@@H]2O)nc(OC)n1 [Compound A325]
[2]
  Kd: < 100 µM

## CO[C@H]1O[C@H](CO)[C@H](O)[C@H](O)[C@H]1Nc1nccc(C(F)(F)F)n1 [Compound A377]
[2]
  Kd: < 100 µM

## CNC(=O)[C@@H]1CO[C@H](CO)[C@H](O)[C@@H]1O [Compound A400, (3R,4R,5R,6R)-4,5-dihydroxy-6-(hydroxymethyl)-N-methyltetrahydro-2H-pyran-3-carboxamide]
[1]
  Kd: > 200 µM

## CN(C)c1nsc(N[C@H]2CO[C@H](CO)[C@H](O)[C@@H]2O)n1 [Compound A339, (2R,3R,4R,5S)-5-((3-(dimethylamino)-1,2,4-thiadiazol-5-yl)amino)-2-(hydroxymethyl)tetrahydro-2H-pyran-3,4-diol]
[2]
  Kd: < 100 µM

## COc1cc(N[C@H]2CO[C@H](CO)[C@H](O)[C@@H]2O)nc(OC)n1 [Compound A363, (2R,3R,4R,5S)-5-((2,6-dimethoxypyrimidin-4-yl)amino)-2-(hydroxymethyl) tetrahydro-2H-pyran-3,4-diol]
[2]
  Kd: < 100 µM

## COc1nc(Cl)nc(N[C@H]2CO[C@H](CO)[C@H](O)[C@@H]2O)n1 [Compound A330]
[2]
  Kd: < 100 µM

## C=CC(=O)N[C@H]1[C@H](OC)O[C@H](CO)[C@H](O)[C@@H]1O [Compound A118, N-((2R,3R,4R,5R,6R)-4,5-dihydroxy-6-(hydroxymethyl)-2-methoxytetrahydro-2H-pyran-3-yl)acrylamide]
[3]
  Kd: < 100 µM

## N[C@@H]1CO[C@H](CO)[C@H](O)[C@@H]1O [Compound A128, (2R,3R,4R,5R)-5-amino-2-(hydroxymethyl)tetrahydro-2H-pyran-3,4-diol]
[3]
  Kd: > 1000 µM

## OC[C@H]1OC[C@H](Nc2nc(Cl)nn3cccc23)[C@@H](O)[C@H]1O [Compound A304]
[2]
  Kd: < 100 µM

## CC(=O)NCCC[C@@H]1CO[C@H](CO)[C@H](O)[C@@H]1O [Compound A163, N-(3-((3R,4R,5R,6R)-4,5-dihydroxy-6-(hydroxymethyl)tetrahydro-2H-pyran-3-yl)propyl)acetamide]
[1]
  Kd: > 200 µM

## CO[C@@H]1O[C@H](COCCOCCOCCOCCNC(=O)CCOCC(COCCC(=O)NCCOCCOCCOCCOC[C@H]2O[C@@H](OC)[C@H](NC(C)=O)[C@@H](O)[C@H]2O)(COCCC(=O)NCCOCCOCCOCCOC[C@H]2O[C@@H](OC)[C@H](NC(C)=O)[C@@H](O)[C@H]2O)NC(=O)COCCOCCOCC(=O)N[C@@H](Cc2cnc[nH]2)C(=O)N[C@@H](CCC(N)=O)C(=O)N[C@H](C(=O)N[C@H]2CSSC[C@@H](C(=O)N[C@@H](Cc3ccccc3)C(=O)N[C@@H](CO)C(=O)N[C@H](C(N)=O)[C@@H](C)O)NC(=O)[C@H](C(C)C)NC(=O)[C@@H]3CCCN3C(=O)[C@H](CCCNC(=N)N)NC(=O)CNC(=O)[C@H](CCCNC(=N)N)NC(=O)[C@H](Cc3ccc(O)cc3)NC(=O)[C@H](CO)NC(=O)[C@H](CC(C)C)NC2=O)C(C)C)[C@H](O)[C@H](O)[C@H]1NC(C)=O [Compound 30] (X3-HQVCLSYRGRPVCFST-NH2; disulfide 4-13)
read-out: ASGPR_SPR Binding KD
  Kd: < 100 µM

## COc1cc(N[C@H]2CO[C@H](CO)[C@H](O)[C@@H]2O)nc(C(F)(F)F)n1 [Compound A359, (2R,3R,4R,5S)-2-(hydroxymethyl)-5-((6-methoxy-2-(trifluoromethyl)pyrimidin-4-yl)amino)tetrahydro-2H-pyran-3,4-diol]
[2]
  Kd: < 100 µM
